From publication PMC9007951, “Systematically evaluating DOTATATE and FDG as PET immuno-imaging tracers of cardiovascular inflammation” (Scientific Reports, 2022)
Like-named read-outs stand apart in the source and are kept apart here. Blank lines part the entries; values can stand above or below the compound they belong to.

Key:
[1] = In vivo PET/CT of vascular inflammation in atherosclerotic mice; settings: female, mouse, ascending aorta, iv, 5.55 MBq, total radioactivity, tracer circulated 60 min, median, N = 4, read-out: SUVmax ascending aorta
Description: (§1) Animals were housed under a constant room temperature at 25 ± 2 °C and 50 ± 5% humidity with a 12-h daylight period and 12-h darkness period, with free access to water. For the mouse atherosclerosis model, 8-weeks old female Apoe^−/− mice (N = 51) were purchased from Jackson Laboratories (Bar Harbor, ME) and, after a 48 h acclimatization period, were fed a Western Diet (42% Kcal from fat TD88137, Envigo, Huntingdon, UK) for 12 weeks. 16–20 weeks old female C57Bl/6 controls (N = 67) were kept on regular chow diet. The myocardial infarction group consisted 16–20 weeks old female C57Bl/6 mice (N = 18) purchased from Jackson Laboratories and subjected to ligation of the left anterior descending artery, as previously described.
(§2) For the PET/CT experiments, mice were fasted for 12 h before radiotracer injection and anesthetized with xylazine (10 mg/kg) and ketamine (100 mg/kg) through intraperitoneal injection prior to radiotracer administration. Subsequently they were injected via the lateral tail vein with approximately 22.2 MBq of [^18F]F-FDG or 5.55 MBq of [^64Cu]Cu-DOTATATE. Tracers were allowed to circulate for 60 min. Immediately before imaging, mice were placed under 1% isoflurane (BaxterHealthcare, Deerfield, IL), and subsequently imaged on a high resolution (700 µm) Mediso nanoScan PET/CT scanner (Mediso, Budapest, Hungary). CT scan was acquired at 50 kVp and 300 ms exposure per projection. eXIA160 (Binitio, Ontario, Canada) was used as a contrast agent to improve imaging of the vasculature by intravenous administration of 100 μl per mouse 5 min prior to CT acquisition. PET acquisition time was 40 min. Reconstruction was performed using TeraTomo 3D reconstruction engine, for 8 iterations and 6 subsets per iteration for both tracers. The voxel size was isotropic at 0.3 mm. Immediately after the PET/CT scan, animals were euthanized for ex vivo assays.
(§3) Using OsiriX v5.6 software (OsiriX Foundation, Geneva, Switzerland), regions of interest (ROIs) were drawn to determine organ radioactivity concentration. In mice, for healthy and infarcted myocardium, ROIs were traced manually in the apex of the heart in the axial view. For remote myocardium, analysis was performed in myocardium 180° from the infarcted zone. In the mice aorta, sequential ROIs were drawn in the ascending aorta based on consecutive tomographic (CT) slices beginning from the root up to the brachiocephalic branch, merging point with the aortic arch. Voxel counts were converted to maximum standardized uptake values (SUVmax). In rabbits, PET images were fused with time-of-flight bright blood MRI angiography and ROIs were manually drawn on the infrarenal abdominal aorta in TOF images. The slice-by-slice maximum standard uptake values (SUVmax) were averaged across the whole aorta. […]

[2] = Ex vivo gamma counting of whole aorta after PET/CT; format: in vivo, mice; settings: female, mouse, iv, 5.55 MBq, total radioactivity, median, N = 4
Description: S1A) to evaluate the tracer’s biodistribution. After euthanasia, an insulin syringe was used to collect blood samples from the right ventricle. Blood samples were used for the establishment of pharmacokinetics profile. Mice were then perfused with 20 mL of phosphate-buffered saline (PBS) and tissues of interest (heart, aorta, bone marrow, spleen, liver, stomach, bladder, kidneys, intestines, lungs, adrenal gland, muscles and pancreas) were harvested. Tissues were blotted for gamma counting on a Wizard2 2480 automatic gamma counter (Perkin Elmer, Waltham, MA). Values were corrected for decay and normalized to tissue weight to express radioactivity concentration as percentage injected dose per gram (%ID/g). […] To investigate the tracer’s distribution within different blood compartments, after gamma counting, 100 μL of blood were spun down at 2000 g for 15 min at 4 °C. Plasma (supernatant) and cells (pellet) were gamma counted and expressed as percentage of total activity. The remainder of the blood was separated using Lymphoprep density gradient medium (Nycomed Pharma, Zurich, Switzerland) following manufacturer’s instructions. Percentage of activity in mononuclear and polynuclear cells was calculated. […]

[3] = system: Apoe^−/− atherosclerotic mice; assay: In vivo PET/CT of vascular inflammation in atherosclerotic mice; settings: tracer circulated 60 min, median, N = 4
Description: as §1, §2, §3

[4] = Blood half-life of [^68Ga]Ga-DOTATATE, gamma counting of venous blood, two-phase decay fit; format: in vivo, New Zealand White rabbits
Description: Adopting a translational approach, the rabbit studies were performed with the [^68Ga]Ga-labeled tracer, which is already being used in the clinic. [^68Ga]Ga-DOTATATE was purchased from Advanced Accelerator Applications (AAA, Millburn, NJ, USA). To determine its pharmacokinetics, three atherosclerotic rabbits and two healthy controls were injected with approximately 190 MBq of [^68Ga]Ga-DOTATATE. Venous blood was sampled at 1, 5, 10, 15, 20, 30, 60, 120, 180, 240 and 300 min after injection through the ear vein. Samples were weighed and gamma counted. Blood half-life data were fitted using a two-phase decay non-linear regression using GraphPad Prism v8.4.3 (Supplementary Table S1). To investigate the tracer blood distribution, blood samples were centrifuged at 2000 g for 15 min at 4 °C to determine the radioactivity concentration in the plasma and cellular fractions. To analyze [^68Ga]Ga-DOTATATE biodistribution, all rabbits were euthanized after the last imaging time-point using an injection of pentobarbital 100 mg/kg and exsanguination of the portal vein. Rabbits were extensively perfused with 1000 mL of saline. Following, tissues (blood, heart, aorta, liver, kidney, skeletal muscle, small and large intestine, fat, stomach, pancreas and bladder) were harvested, weighed and gamma counted.

[5] = Apoe^−/− mice 12 weeks on Western Diet

SUV at 1 h [1, 5]: 1.1 SUV
SUV at 1 h ([1]; healthy C57Bl/6 control mice): 0.5 SUV
tissue uptake ([2]; atherosclerotic Apoe^−/− mice after PET/CT): 7.4 %ID/g
tissue uptake ([2]; control C57Bl/6 mice after PET/CT): 3.5 %ID/g
SMILES: C[C@@H](O)[C@H](NC(=O)[C@@H]1CSSC[C@H](NC(=O)[C@@H](Cc2ccccc2)NC(=O)CN2CCN(CC(=O)O)CCN(CC(=O)O)CCN(CC(=O)O)CC2)C(=O)N[C@@H](Cc2ccc(O)cc2)C(=O)N[C@H](Cc2c[nH]c3ccccc23)C(=O)N[C@@H](CCCCN)C(=O)N[C@@H]([C@@H](C)O)C(=O)N1)C(=O)O [[^64Cu]Cu-DOTATATE, metal not drawn]

SUVmax ascending aorta [3, 5]: 1.2
SUVmax ascending aorta ([3]; healthy C57Bl/6 control mice): 1.7
SMILES: OC[C@H]1OC(O)[C@H]([18F])[C@@H](O)[C@@H]1O (stereo partly shown) [[^18F]F-FDG, [^18F]F-fluorodeoxyglucose]

%fast ([4]; athero4mo rabbits, N = 3): 53.17%
%slow ([4]; athero4mo rabbits, N = 3): 46.83%
Weighed t1/2 (weighted half-life) ([4]; athero4mo rabbits, N = 3): 53.66 min
t1/2 fast ([4]; athero4mo rabbits, N = 3): 19.17 min
t1/2 slow ([4]; athero4mo rabbits, N = 3): 92.82 min
%fast ([4]; control rabbits, N = 2): 39.7%
%slow ([4]; control rabbits, N = 2): 60.3%
Weighed t1/2 (weighted half-life) ([4]; control rabbits, N = 2): 21.17 min
t1/2 fast ([4]; control rabbits, N = 2): 3.419 min
t1/2 slow ([4]; control rabbits, N = 2): 32.86 min
SMILES: C[C@@H](O)[C@H](NC(=O)[C@@H]1CSSC[C@H](NC(=O)[C@@H](Cc2ccccc2)NC(=O)CN2CCN(CC(=O)O)CCN(CC(=O)O)CCN(CC(=O)O)CC2)C(=O)N[C@@H](Cc2ccc(O)cc2)C(=O)N[C@H](Cc2c[nH]c3ccccc23)C(=O)N[C@@H](CCCCN)C(=O)N[C@@H]([C@@H](C)O)C(=O)N1)C(=O)O [[^68Ga]Ga-DOTATATE, metal not drawn]
